For the assay, the target named is T1, GSK3A (GSK3 alpha) (Homo sapiens, UniProt P49840).
T1 construct: purchased Thermo Fisher Scientific (Life Technologies) SelectScreen
Put plainly: SelectScreen Z'LYTE. The assay is classed as biochemical. The gist of the method:
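Compound tested in SelectScreen activity assays, Z'LYTE for CSF1R, CDK1/cyclin B and MAP2K6 and Adapta for CAMK1. ATP for CAMK1 was listed as 10, and Km app was used for CSF1R. Results are expressed in percent.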

T1 sequence (P49840 whole entry): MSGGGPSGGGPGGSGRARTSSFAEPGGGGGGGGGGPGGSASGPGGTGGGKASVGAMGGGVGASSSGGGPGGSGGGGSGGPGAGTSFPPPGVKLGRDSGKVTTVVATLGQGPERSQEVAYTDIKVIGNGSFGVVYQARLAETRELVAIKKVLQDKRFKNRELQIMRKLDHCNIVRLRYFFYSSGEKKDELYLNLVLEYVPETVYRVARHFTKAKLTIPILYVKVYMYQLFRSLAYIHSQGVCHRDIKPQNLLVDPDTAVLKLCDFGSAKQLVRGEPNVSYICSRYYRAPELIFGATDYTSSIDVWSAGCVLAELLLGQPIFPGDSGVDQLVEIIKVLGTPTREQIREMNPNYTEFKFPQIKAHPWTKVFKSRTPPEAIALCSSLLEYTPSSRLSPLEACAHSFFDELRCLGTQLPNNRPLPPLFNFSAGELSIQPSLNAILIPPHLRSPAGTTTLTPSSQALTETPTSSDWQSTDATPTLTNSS

As for `CN(C(=O)CN1CCOCC1)c1ccc2sc3c(-c4cccc5c(=O)cc(N6CC7CCC(C6)O7)oc45)cccc3c2c1` [NU5455], the inhibition at 1 µM is -5.5%.

In general, inhibition refers to the change of the read-out against control, counted positive when it falls.

Source of the values: paper PMC6934184, “Selective DNA-PKcs inhibition extends the therapeutic index of localized radiotherapy and chemotherapy” (The Journal of Clinical Investigation, 2019).
